Common to all, as to assay type: functional
One experiment has as its system Aspergillus fumigatus. Kind of experiment: Lowest concentration required to inhibit the growth of Aspergillus fumigatus.
Experiment [1] has as its system Candida albicans. Nature of the experiment: Lowest concentration required to inhibit 90-100% of the visible growth of Candida albicans when compared to controls.
Experiment [2] relates to Candida albicans. Nature of the experiment: Lowest concentration required to inhibit 90-100% of the visible growth of Candida albicans when compared to control; Range is 0.312-0.625.

SMILES strings stand for the structures. In brackets after ≈: the same amount, converted by molar mass. Positions of bridges follow the written chain, without caps; N, C: chain ends. Non-standard residues stand in square brackets, D forms with d. Residues, ends and D or L forms follow the SMILES beside them. *: point of attachment. Tetradecanoyl(3R-OH) = CCCCCCCCCCC[C@@H](O)CC(=O)*; Asp(3S-OH) = N[C@H](C(=O)O)[C@H](O)C(=O)O; Thr(4-Cl) = N[C@H](C(=O)O)[C@H](O)CCl; aThr = C[C@H](O)[C@H](N)C(=O)O; dDab = NCC[C@@H](N)C(=O)O; Dab = NCC[C@H](N)C(=O)O; Dhb = C/C=C(\N)C(=O)O

In the case of `C/C=C1\NC(=O)[C@H]([C@H](C)O)NC(=O)[C@@H](CCN)NC(=O)[C@@H](CCCCN)NC(=O)[C@@H](CC(=O)O)NC(=O)[C@@H](CCN)NC(=O)[C@@H](NC(=O)C[C@@H](O)c2cccc(CCCCCCCC)c2)COC(=O)[C@@H]([C@H](O)CCl)NC(=O)[C@H]([C@H](O)C(=O)O)NC1=O`, the minimal inhibitory concentration (MIC) against Aspergillus fumigatus and in the experiment on Candida albicans [1] was over 20 µg/mL throughout.
With `C/C=C1\NC(=O)[C@H]([C@H](C)O)NC(=O)[C@@H](CCN)NC(=O)[C@@H](CCCCN)NC(=O)[C@@H](CC(=O)O)NC(=O)[C@@H](CCN)NC(=O)[C@@H](NC(=O)C[C@H](O)c2cccc(CCCCCCCCCCCC)c2)COC(=O)[C@@H]([C@H](O)CCl)NC(=O)[C@H]([C@H](O)C(=O)O)NC1=O`, the values for the MIC in the experiment with Aspergillus fumigatus and with Candida albicans [1] were 2.5 µg/mL (≈ 1.93 µM) and 1.25 µg/mL (≈ 0.963 µM), respectively.
The matching figures for `C/C=C1\NC(=O)[C@H]([C@H](C)O)NC(=O)[C@@H](CCN)NC(=O)[C@@H](CCCCN)NC(=O)[C@@H](CC(=O)O)NC(=O)[C@@H](CCN)NC(=O)[C@@H](NC(=O)C[C@@H](O)c2cccc(CCCCCCCCCCCC)c2)COC(=O)[C@@H]([C@H](O)CCl)NC(=O)[C@H]([C@H](O)C(=O)O)NC1=O`: over 20 µg/mL and 5 µg/mL (≈ 3.85 µM).
The matching figures for `C/C=C1\NC(=O)[C@H]([C@H](C)O)NC(=O)[C@@H](CCN)NC(=O)[C@@H](CCCCN)NC(=O)[C@@H](CC(=O)O)NC(=O)[C@@H](CCN)NC(=O)[C@@H](NC(=O)C[C@@H](O)c2cccc(OCCCCCCCCCCC)c2)COC(=O)[C@@H]([C@H](O)CCl)NC(=O)[C@H]([C@H](O)C(=O)O)NC1=O`: over 20 µg/mL and 10 µg/mL (≈ 7.69 µM).
On to `C/C=C1\NC(=O)[C@H]([C@H](C)O)NC(=O)[C@@H](CCN)NC(=O)[C@@H](CCCCN)NC(=O)[C@@H](CC(=O)O)NC(=O)[C@@H](CCN)NC(=O)[C@@H](NC(=O)C[C@@H](O)CCc2cccc(OCCCCC)c2)COC(=O)[C@@H]([C@H](O)CCl)NC(=O)[C@H]([C@H](O)C(=O)O)NC1=O`, for which the MIC in the experiment on Aspergillus fumigatus and against Candida albicans [1] was over 20 µg/mL throughout.
For `C/C=C1\NC(=O)[C@H]([C@H](C)O)NC(=O)[C@@H](CCN)NC(=O)[C@@H](CCCCN)NC(=O)[C@@H](CC(=O)O)NC(=O)[C@@H](CCN)NC(=O)[C@@H](NC(=O)C[C@H](O)CCc2cccc(OCCCCC)c2)COC(=O)[C@@H]([C@H](O)CCl)NC(=O)[C@H]([C@H](O)C(=O)O)NC1=O`, the MIC against Aspergillus fumigatus and with Candida albicans [1] was over 20 µg/mL throughout.
On to `C/C=C1\NC(=O)[C@H]([C@@H](C)O)NC(=O)[C@@H](CCN)NC(=O)[C@@H](CCCCN)NC(=O)[C@@H](CC(=O)O)NC(=O)[C@@H](CCN)NC(=O)[C@@H](NC(=O)C[C@H](O)c2cccc(OCCCCCCCCCCC)c2)COC(=O)[C@@H]([C@H](O)CCl)NC(=O)[C@H]([C@H](O)C(=O)O)NC1=O`, for which the minimum inhibitory concentration (MIC) with Aspergillus fumigatus is over 20 µg/mL; in the experiment with Candida albicans [1], 0.625 µg/mL (≈ 0.481 µM).
In the case of `C/C=C1\NC(=O)[C@H]([C@@H](C)O)NC(=O)[C@@H](CCN)NC(=O)[C@@H](CCCCN)NC(=O)[C@@H](CC(=O)O)NC(=O)[C@@H](CCN)NC(=O)[C@@H](NC(=O)C[C@H](O)c2cccc(CCCCCCCC)c2)COC(=O)[C@@H]([C@H](O)CCl)NC(=O)[C@H]([C@H](O)C(=O)O)NC1=O`, the figures for the MIC in the experiment with Aspergillus fumigatus and against Candida albicans [1] were over 20 µg/mL and 5 µg/mL (≈ 4.03 µM), respectively.
The matching figures for `C/C=C1\NC(=O)[C@H]([C@@H](C)O)NC(=O)[C@@H](CCN)NC(=O)[C@@H](CCCCN)NC(=O)[C@@H](CC(=O)O)NC(=O)[C@@H](CCN)NC(=O)[C@@H](NC(=O)CC(O)Cc2cccc(OCCCCCC)c2)COC(=O)[C@@H]([C@H](O)CCl)NC(=O)[C@H]([C@H](O)C(=O)O)NC1=O` (stereo not given in full): over 20 µg/mL and over 20 µg/mL.
The matching figures for `C/C=C1\NC(=O)[C@H]([C@@H](C)O)NC(=O)[C@@H](CCN)NC(=O)[C@@H](CCCCN)NC(=O)[C@@H](CC(=O)O)NC(=O)[C@@H](CCN)NC(=O)[C@@H](NC(=O)CC(O)CCc2cccc(OCCCCCCCCC)c2)COC(=O)[C@@H]([C@H](O)CCl)NC(=O)[C@H]([C@H](O)C(=O)O)NC1=O` (stereo not given in full): over 20 µg/mL and 20 µg/mL (≈ 15.4 µM).
For the compound `C/C=C1\NC(=O)[C@H]([C@@H](C)O)NC(=O)[C@@H](CCN)NC(=O)[C@@H](CCCCN)NC(=O)[C@@H](CC(=O)O)NC(=O)[C@@H](CCN)NC(=O)[C@@H](NC(=O)CC(O)CCc2cccc(OCCCCCCC)c2)COC(=O)[C@@H]([C@H](O)CCl)NC(=O)[C@H]([C@H](O)C(=O)O)NC1=O` (stereo not given in full), the minimum inhibitory concentration (MIC) in the experiment on Aspergillus fumigatus is over 20 µg/mL; with Candida albicans [1] it was 10 µg/mL (≈ 7.86 µM).
The matching figures for `C/C=C1\NC(=O)[C@H]([C@@H](C)O)NC(=O)[C@@H](CCN)NC(=O)[C@@H](CCCCN)NC(=O)[C@@H](CC(=O)O)NC(=O)[C@@H](CCN)NC(=O)[C@@H](NC(=O)CC(O)Cc2cccc(OCCCCCCCCCC)c2)COC(=O)[C@@H]([C@H](O)CCl)NC(=O)[C@H]([C@H](O)C(=O)O)NC1=O` (stereo not given in full): over 20 µg/mL and 15 µg/mL (≈ 11.5 µM).
Take `C/C=C1\NC(=O)[C@H]([C@@H](C)O)NC(=O)[C@@H](CCN)NC(=O)[C@@H](CCCCN)NC(=O)[C@@H](CC(=O)O)NC(=O)[C@@H](CCN)NC(=O)[C@@H](NC(=O)CC(O)Cc2cccc(OCCCCCCCC)c2)COC(=O)[C@@H]([C@H](O)CCl)NC(=O)[C@H]([C@H](O)C(=O)O)NC1=O` (stereo not given in full): the minimum inhibitory concentration (MIC) against Aspergillus fumigatus and with Candida albicans [1] was over 20 µg/mL each time.
Take `C/C=C1\NC(=O)[C@H]([C@@H](C)O)NC(=O)[C@@H](CCN)NC(=O)[C@@H](CCCCN)NC(=O)[C@@H](CC(=O)O)NC(=O)[C@@H](CCN)NC(=O)[C@@H](NC(=O)CC(O)CCc2cccc(OCCCCC)c2)COC(=O)[C@@H]([C@H](O)CCl)NC(=O)[C@H]([C@H](O)C(=O)O)NC1=O` (stereo not given in full): the MIC in the experiment with Aspergillus fumigatus and against Candida albicans [1] was over 20 µg/mL each time.
For `C/C=C1\NC(=O)[C@H]([C@H](C)O)NC(=O)[C@H](CCN)NC(=O)[C@H](CCCCN)NC(=O)[C@H](CC(=O)O)NC(=O)[C@@H](CCN)NC(=O)[C@@H](NC(=O)C[C@H](O)CCCCCCCCCCC)COC(=O)[C@H]([C@H](O)CCl)NC(=O)[C@H]([C@H](O)C(=O)O)NC1=O` ({Tetradecanoyl(3R-OH)}-S[dDab]DK[Dab][aThr][Dhb][Asp(3S-OH)][Thr(4-Cl)]; ester 1-C), the minimal inhibitory concentration (MIC) in the experiment on Candida albicans [2] is 0.625 µg/mL (≈ 0.517 µM); against Aspergillus fumigatus, over 20 µg/mL.

The term MIC denotes the lowest concentration that inhibits growth of the organism.

Source of the values: ChEMBL document CHEMBL1133313, “Syntheses and antifungal activity of pseudomycin side-chain analogues. Part 1” (2000).
